Experimental data: patent US20080234203A1, “Use of Substances Having Oxytocin Antagonistic Properties” (Ferring BV, priority 2004, published 2008)

Experiments:
pregnant rats = test: Blood pressure measurements in pregnant rats (tail cuff); assay type: in vivo, rat; settings: 200 μg/d, gestational day 19 to 22 and pp1 to pp7
Method: The X axis represents the time of pregnancy (gestational age), and the Y axis represents the systolic blood pressure (mmHg). Barusiban (200 μg/d), atosiban (200 μg/d) and control (saline) (200 μg/d) were administered to pregnant rats from gestational day 19 to 22 and during pp1 to pp7 (pp=post partum).
Animals. Adult nulliparous pregnant rats (300-325 g body weight) were purchased from Harlan Sprague Dawley, Inc (Indianapolis, Ind.), and were received in the animal facilities on day 16 of pregnancy (with day 1 being the day of the positive sperm smear result). All animals were given free access to food and water.
Blood pressure measurement. Starting on day 19 of pregnancy systolic blood pressure was measured daily or every other day with a pneumatic tail cuff device (NARCO Biosystems, Inc, Austin, Tex.) in animals that had been warmed in a metal chamber maintained at approximately 30° C. Blood pressure values obtained from 3 consecutive measurements were averaged and recorded as the pressure for a given rat at each point. Measurements of systolic blood pressure of all animals were carried out until delivery and for seven days post partum (pp7) All animals delivered on day 22 of gestation, the expected day of delivery. Three groups of animals were studied: Group 1. […]
Statistical analysis. Mean +/− SEM values were calculated for blood pressure levels on each day of pregnancy and post partum. […]

[1] = system: isolated uterine artery, femoral artery, carotoid artery and aorta; test: In vitro contractility of isolated arteries from non-pregnant SHR rats; set-up: species or system spontaneous hypertensive (SHR) rats; settings: uterine arteries compared with femoral artery
Excerpt: (§1) Nonpregnant or timed-pregnant Sprague-Dawley rats (of a 22-day pregnancy, with day 1 being the day when the sperm plug was observed) were obtained from Charles River Laboratories (Houston, Tex.). In some studies Spontaneously Hypertensive Rats (SHR) and their respective normatensive controls (WKY) were used. Rats were killed by means of carbon dioxide inhalation on day 14 (midterm pregnant) or day 22 before labor (term pregnant) or during the estrus cycle (nonpregnant). […] Contractions of uterine vascular tissues (cut into rings) were recorded and stored on computer with the DI-220 (DataQ Instruments Inc, Akron, Ohio) data acquisition system. […]
(§2) Data were analyzed by using Windaq/200 (DataQ Instruments Inc) software. Integral activity as an area under the tracing of vascular contractions for 10 minutes (expressed as milligrams per second) before (basal activity) and after the addition of each concentration of the agent was calculated and compared with basal activity (as percentage change). […] The concentration of oxytocin causing 50% of the maximal effect was determined, and the −log50 of the half maximal effect and the area under the concentration-response curves were calculated and compared. The data are expressed as mean ± SD. […]

[2] = system: isolated rat uterine artery; test: In vitro contractility of isolated rat uterine artery from nonpregnant, midpregnant and late pregnant rats
Excerpt: The X axis-represents the oxytocin concentration {log M} and the Y axis represents % of phenylephrine-induced contraction. […] The following pD2 values were obtained, non-pregnant (9.32±0.41, n=7), midpregnant (7.46±0.13, n=6) and late pregnant (7.87±0.39, n=6). It could be speculated that the generally lower sensitivity of uterine vessels during pregnancy is related to eventually higher local oxytocin concentrations.
as §1, §2

[3] = system: isolated uterine artery, femoral artery, carotoid artery and aorta; test: In vitro contractility of isolated arteries from non-pregnant WKY rats; set-up: species or system Wistar (WKY) rats
Excerpt: as §1, §2

| Compound | systolic blood pressure (pregnant rats) | oxytocin sensitivity (contraction dose/response) [1] | pD2 (oxytocin-induced contraction, % of phenylephrine-induced contraction) ([2]; uterine artery of late pregnant rats, n=6) | pD2 (oxytocin-induced contraction, % of phenylephrine-induced contraction) ([2]; uterine artery of midpregnant rats, n=6) | pD2 (oxytocin-induced contraction, % of phenylephrine-induced contraction) ([2]; uterine artery of non-pregnant rats, n=7) | oxytocin sensitivity (contraction dose/response) ([3]; uterine arteries compared with femoral artery, carotoid artery and aorta, non-pregnant WKY rats) | oxytocin sensitivity (contraction dose/response) ([3]; uterine arteries of non-pregnant WKY rats compared with SHR rats) |
| --- | --- | --- | --- | --- | --- | --- | --- |
| C^4,6, S^1-cyclo [Barusiban, C^4,6, S^1-cyclo [N-(3-sulfanylpropanoyl) -D-tryptophyl-L -isoleucyl-L-alloisoleucyl-L-asparaginyl-L-2-aminobutanoyl-N-methyl-L-ornithinol]] | beneficial drop in systolic blood pressure around birth | – | – | – | – | – | – |
| CC[C@H](C)[C@@H]1NC(=O)[C@H](Cc2ccc(O)cc2)NC(=O)[C@@H](N)CSSC[C@@H](C(=O)N2CCC[C@H]2C(=O)N[C@@H](CC(C)C)C(=O)NCC(N)=O)NC(=O)[C@H](CC(N)=O)NC(=O)[C@H](CCC(N)=O)NC1=O [oxytocin] | – | highest sensitivity | 7.87±0.39 | 7.46±0.13 | 9.32±0.41 | outstanding high sensitivity | higher sensitivity |
